Data taken from patent publication US9174973B2, “Crystalline forms of azilsartan and preparation and uses thereof” (SUNSHINE LAKE PHARMA CO., LTD., priority 2011, dated 2015).

What was measured:
Format in all cases: physicochemical
[1] = Humidity Stability of crystalline form A; settings: 25° C., RH 90%+/−5%
Experimental: A layer of crystalline form A having a thickness of less than 5 mm was place in a flat weighing bottle. […] The conditions for the HPLC measurements are as shown below. • Instrument: Agilent 1200HPLC • Column: Agilent Eclipse XDB-C18 4.6*150 mm, 5 μm • Detection wavelength: 254 nm • Mobile phase: A phase 10 mM ammonium acetate (pH=3.5) and B phase acetonitrile [table]

[2] = solubility test of crystalline forms in 0.1M HCl (Chinese Pharmacopoeia 2010); settings: 300 mg in 6 ml 0.1M HCl, 25° C.±2° C.
Experimental: The solubility of crystalline forms A, B, C and D was measured in accordance with the solubility test described in “Chinese Pharmacopoeia 2010”, Topic and Requirement 15. A crystalline form of azilsartan was grinded into powder. The powder (300 mg) was added to 6 ml of 0.1M HCl as the solvent at 25° C.±2° C. […] The total test time was 30 minutes. The solid was deemed as dissolved when no solid was detected in the mixture by human eyes. The solubility data of crystalline forms A, B, C and D of azilsartan are as shown below.

[3] = Thermal Stability of crystalline form A
Experimental: A layer of crystalline form A having a thickness of less than 5 mm was place in a flat weighing bottle. […] Samples were taken out at 6 days, 11 days and 16 days and examined for purity by HPLC, appearance and crystalline form. The conditions for the HPLC measurements are as shown below. • Instrument: Agilent 1200HPLC • Column: Agilent Eclipse XDB-C18 4.6*150 mm, 5 μm • Detection wavelength: 254 nm • Mobile phase: A phase 10 mM ammonium acetate (pH=3.5) and B phase acetonitrile [table]

[4] = 0 day (initial sample, before stress)

Appearance ([1]; 6 days): White or off- | Crystalline form ([1]; 6 days): Form A | RT* (min.) 2.89 (HPLC peak) ([1]; 6 days): 0.02% | RT* (min.) 3.9 (HPLC peak) ([1]; 6 days): 0.31% | RT* (min.) 5.79 (HPLC peak) ([1]; 6 days): 0.01 | RT* (min.) 13.2 (azilsartan peak, purity by HPLC) ([1]; 6 days): 99.48% | RT* (min.) 22.8 (HPLC peak) ([1]; 6 days): 0.05% | RT* (min.) 23.6 (HPLC peak) ([1]; 6 days): 0.02% | RT* (min.) 27.5 (HPLC peak) ([1]; 6 days): 0.07% | RT* (min.) 30.66 (HPLC peak) ([1]; 6 days): 0.03% | Appearance ([1]; 11 days): White or off- | Crystalline form ([1]; 11 days): Form A | RT* (min.) 2.89 (HPLC peak) ([1]; 11 days): 0.02% | RT* (min.) 3.9 (HPLC peak) ([1]; 11 days): 0.33% | RT* (min.) 13.2 (azilsartan peak, purity by HPLC) ([1]; 11 days): 99.51% | RT* (min.) 22.8 (HPLC peak) ([1]; 11 days): 0.04% | RT* (min.) 23.6 (HPLC peak) ([1]; 11 days): 0.02% | RT* (min.) 27.5 (HPLC peak) ([1]; 11 days): 0.06% | RT* (min.) 30.66 (HPLC peak) ([1]; 11 days): 0.03% | Appearance ([1]; 16 days): White or off- | Crystalline form ([1]; 16 days): Form A | RT* (min.) 2.89 (HPLC peak) ([1]; 16 days): 0.01% | RT* (min.) 3.9 (HPLC peak) ([1]; 16 days): 0.32% | RT* (min.) 13.2 (azilsartan peak, purity by HPLC) ([1]; 16 days): 99.52% | RT* (min.) 22.8 (HPLC peak) ([1]; 16 days): 0.04% | RT* (min.) 23.6 (HPLC peak) ([1]; 16 days): 0.01% | RT* (min.) 27.5 (HPLC peak) ([1]; 16 days): 0.05% | RT* (min.) 30.66 (HPLC peak) ([1]; 16 days): 0.02% | solubility [2]: very soluble | Appearance [3, 4]: White or off- | Crystalline form [3, 4]: Form A | RT* (min.) 2.89 (HPLC peak) [3, 4]: 0.01% | RT* (min.) 3.9 (HPLC peak) [3, 4]: 0.32% | RT* (min.) 13.2 (azilsartan peak, purity by HPLC) [3, 4]: 99.51% | RT* (min.) 22.8 (HPLC peak) [3, 4]: 0.04% | RT* (min.) 23.6 (HPLC peak) [3, 4]: 0.01% | RT* (min.) 27.5 (HPLC peak) [3, 4]: 0.06% | RT* (min.) 30.66 (HPLC peak) [3, 4]: 0.02% | Appearance ([3]; 60° C., 6 days): White or off- | Crystalline form ([3]; 60° C., 6 days): Form A | RT* (min.) 2.89 (HPLC peak) ([3]; 60° C., 6 days): 0.02% | RT* (min.) 3.9 (HPLC peak) ([3]; 60° C., 6 days): 0.33% | RT* (min.) 5.79 (HPLC peak) ([3]; 60° C., 6 days): 0.01% | RT* (min.) 13.2 (azilsartan peak, purity by HPLC) ([3]; 60° C., 6 days): 99.47% | RT* (min.) 20.55 (HPLC peak) ([3]; 60° C., 6 days): 0.01% | RT* (min.) 22.8 (HPLC peak) ([3]; 60° C., 6 days): 0.04% | RT* (min.) 23.6 (HPLC peak) ([3]; 60° C., 6 days): 0.02% | RT* (min.) 26.96 (HPLC peak) ([3]; 60° C., 6 days): 0.01% | RT* (min.) 27.5 (HPLC peak) ([3]; 60° C., 6 days): 0.06% | RT* (min.) 28.81 (HPLC peak) ([3]; 60° C., 6 days): 0.01%
SMILES: CCOc1nc2cccc(C(=O)O)c2n1Cc1ccc(-c2ccccc2-c2noc(=O)[nH]2)cc1 [Form A]
RT* (min.) 2.39 (HPLC peak) ([1]; 6 days): — (“—” refers to the peak area is less than 3000 or there is no peak) | RT* (min.) 20.55 (HPLC peak) ([1]; 6 days): — (“—” refers to the peak area is less than 3000 or there is no peak) | RT* (min.) 26.96 (HPLC peak) ([1]; 6 days): — (“—” refers to the peak area is less than 3000 or there is no peak) | RT* (min.) 28.81 (HPLC peak) ([1]; 6 days): — (“—” refers to the peak area is less than 3000 or there is no peak) | RT* (min.) 2.39 (HPLC peak) ([1]; 11 days): — (“—” refers to the peak area is less than 3000 or there is no peak) | RT* (min.) 5.79 (HPLC peak) ([1]; 11 days): — (“—” refers to the peak area is less than 3000 or there is no peak) | RT* (min.) 20.55 (HPLC peak) ([1]; 11 days): — (“—” refers to the peak area is less than 3000 or there is no peak) | RT* (min.) 26.96 (HPLC peak) ([1]; 11 days): — (“—” refers to the peak area is less than 3000 or there is no peak) | RT* (min.) 28.81 (HPLC peak) ([1]; 11 days): — (“—” refers to the peak area is less than 3000 or there is no peak) | RT* (min.) 2.39 (HPLC peak) ([1]; 16 days): — (“—” refers to the peak area is less than 3000 or there is no peak) | RT* (min.) 5.79 (HPLC peak) ([1]; 16 days): — (“—” refers to the peak area is less than 3000 or there is no peak) | RT* (min.) 20.55 (HPLC peak) ([1]; 16 days): — (“—” refers to the peak area is less than 3000 or there is no peak) | RT* (min.) 26.96 (HPLC peak) ([1]; 16 days): — (“—” refers to the peak area is less than 3000 or there is no peak) | RT* (min.) 28.81 (HPLC peak) ([1]; 16 days): — (“—” refers to the peak area is less than 3000 or there is no peak) | RT* (min.) 2.39 (HPLC peak) [3, 4]: — (“—” refers to the peak area is less than 3000 or there is no peak) | RT* (min.) 5.79 (HPLC peak) [3, 4]: — (“—” refers to the peak area is less than 3000 or there is no peak) | RT* (min.) 20.55 (HPLC peak) [3, 4]: — (“—” refers to the peak area is less than 3000 or there is no peak) | RT* (min.) 26.96 (HPLC peak) [3, 4]: — (“—” refers to the peak area is less than 3000 or there is no peak) | RT* (min.) 28.81 (HPLC peak) [3, 4]: — (“—” refers to the peak area is less than 3000 or there is no peak) | RT* (min.) 2.39 (HPLC peak) ([3]; 60° C., 6 days): — (“—” refers to the peak area is less than 3000 or there is no peak)
